Laboratory results published in US11554154B2, “Polygala extract for the treatment of major depressive disorder” (priority 2020, dated 2023).

Test system: tetrabenazine-induced hypothermia
Experiment: In vivo tetrabenazine-induced hypothermia test
Conditions: oral gavage 60 minutes before TBZ i.p.; ICR male mice
Description: FIG. 1 depicts in vivo tetrabenazine-induced hypothermia test. Imipramine (positive control), PDC-1421, 1st Fraction 10-19, 1st Fraction 33, 2nd Fraction-1 (the major components are polygalatenosides A/B/C), 2nd Fraction-3, TMCA, Polygalaxanthone III, Onjisaponin B, Sibiricose A5, 7-O-Methylmangiferin and Sibiricaxanthone B are administered as test substances and the temperature recovery (%) is documented as shown in figure. The around 70% of PDC-1421 in Example 1 are composed of sucroester (34%), saponin (18%) and xanthone (17%). Some active compounds of powder product in Example 1, polygalatenosides A/B/C (2nd fraction 1), ploygalaxanthone III, sibiricoses A5, and 7-O-methylmangiferin are also discovered through in vivo tetrabenazine-induced hypothermia test (one of rodent models for evaluating antidepressant-like activity in mice). Imipramine (positive control), PDC-1421, 1st Fraction 10-19, 1st Fraction 33, 2nd Fraction-1 (the major components are polygalatenosides A/B/C), 2nd Fraction-3, TMCA, Polygalaxanthone III, Onjisaponin B, Sibiricose A5, 7-O-Methylmangiferin and Sibiricaxanthone B were dissolved in water for injection (WFI) and administered by oral gavage. The dosing volume was 10 mL/kg. Test substances and vehicle (WFI) were administered by oral gavage to groups of 8 ICR male mice weighing 23±3 g 60 minutes before intraperitoneal injection of tetrabenazine (TBZ, 85 ma/kg). Body temperature was recorded before (0 min), and 60, 90 and 120 min after TBZ challenge.

| Structure (SMILES) | activity in tetrabenazine-induced hypothermia test (temperature recovery) |
| --- | --- |
| COc1cc2c(=O)c3c(O)c([C@@H]4O[C@H](CO)[C@@H](O)[C@H](O)[C@H]4O)c(O)cc3oc2cc1O [7-O-methylmangiferin] | active |
| COc1cc2c(=O)c3c(O)c([C@@H]4O[C@H](CO[C@@H]5OC[C@](O)(CO)[C@H]5O)[C@@H](O)[C@H](O)[C@H]4O)c(O)cc3oc2cc1O [ploygalaxanthone III] | active |
| COc1cc(/C=C/C(=O)O[C@H]2[C@H](O)[C@@H](CO)O[C@@]2(CO)O[C@H]2O[C@H](CO)[C@@H](O)[C@H](O)[C@H]2O)ccc1O [sibiricoses A5] | active |
